# Experimental data from patent publication US20210171598A1, “PEPTIDE HORMONE WITH ONE OR MORE O-GLYCANS” (priority 2017, published 2021).
# Legend:
# [1] = target: T1, insulin-degrading enzyme (IDE) (Homo sapiens, UniProt P14735); test: In vitro degradation by insulin-degrading enzyme, MALDI-TOF time course; assay type: in vitro ADME
# T1 construct: purchased R&D Systems
# T1 sequence (P14735 1-1019): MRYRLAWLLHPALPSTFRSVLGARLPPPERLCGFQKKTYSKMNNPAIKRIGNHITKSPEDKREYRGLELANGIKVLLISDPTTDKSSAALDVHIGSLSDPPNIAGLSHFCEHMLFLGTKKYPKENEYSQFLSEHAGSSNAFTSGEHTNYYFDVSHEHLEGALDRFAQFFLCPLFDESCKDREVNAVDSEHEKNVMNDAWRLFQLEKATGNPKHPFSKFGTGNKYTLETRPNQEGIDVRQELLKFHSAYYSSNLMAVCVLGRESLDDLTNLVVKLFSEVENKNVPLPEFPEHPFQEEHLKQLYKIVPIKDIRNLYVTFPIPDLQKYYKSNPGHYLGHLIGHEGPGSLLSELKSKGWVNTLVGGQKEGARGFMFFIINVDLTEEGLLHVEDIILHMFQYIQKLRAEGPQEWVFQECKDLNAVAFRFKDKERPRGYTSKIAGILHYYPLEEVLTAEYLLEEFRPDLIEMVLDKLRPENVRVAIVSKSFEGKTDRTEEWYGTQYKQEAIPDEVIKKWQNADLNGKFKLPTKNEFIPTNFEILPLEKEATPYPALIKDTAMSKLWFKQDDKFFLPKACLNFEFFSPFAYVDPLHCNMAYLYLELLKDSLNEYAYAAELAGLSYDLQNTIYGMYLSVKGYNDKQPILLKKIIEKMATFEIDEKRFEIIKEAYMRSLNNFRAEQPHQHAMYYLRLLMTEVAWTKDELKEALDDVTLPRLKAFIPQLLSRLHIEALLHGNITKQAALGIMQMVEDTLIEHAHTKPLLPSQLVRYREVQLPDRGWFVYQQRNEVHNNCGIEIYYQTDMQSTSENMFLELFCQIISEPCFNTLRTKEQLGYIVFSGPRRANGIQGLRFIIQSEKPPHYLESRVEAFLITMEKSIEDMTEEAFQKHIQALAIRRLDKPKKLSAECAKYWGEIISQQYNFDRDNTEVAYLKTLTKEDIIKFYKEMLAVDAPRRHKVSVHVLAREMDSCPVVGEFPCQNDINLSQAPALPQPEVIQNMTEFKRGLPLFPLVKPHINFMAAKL
# Protocol: Reactions were performed in 50 mM Tris, 0.05% Brij-35, pH 9 (Neprilysin), or 50 mM Tris, 20 mM NaCl, pH 7.5 (IDE) and incubated at 37° C.
# [2] = system: male Sprague Dawley rats; test: Acute cardiovascular and renal actions of i.v. infusion in anesthetized rats; assay type: in vivo; conditions: rat
# Text: The protocol is outlined in FIG. 9A.
# Rats were then subjected to vessel and bladder cannulation for peptide infusion, BP measurement, blood sampling and urine collection. A polyethylene (PE)-5G tube catheter was placed into the jugular vein for inulin, peptide intravenous infusion. The carotid artery was cannulated with a PE-50 tube catheter for BP measurement (Sonometrics, London, Ontario, Canada) and blood sampling. The bladder was accessed and cannulated with a PE-50 tube catheter for passive urine collection. After completion of the above procedural set up, a 45 min equilibration period was performed that included continuous IV inulin and saline infusion. After the 45 min equilibration period, baseline (Time==Q min) parameters were recorded and one blood sampling (0.7 ml) was performed. The inulin and saline infusion was replaced by a continuous intravenously (i.v.) infusion of equimolar ANP-Ser19/ST or ANP-Ser25/ST for 60 min. The infusion rate was weight adjusted and equals weight*0.7/6000 ml/min. After 60 min infusion (Time=60 min), another blood sampling (0.7 ml) was conducted. […] Urine was collected at the end of the infusion (Time=60 min) and the study (Time=90 min). Urinary sodium was measured with pHOx Ultra (Nova Biomedical, Waltham, Mass.). Urine flow (UV) and urinary sodium excretion (UNaV) were calculated as urine volume or sodium clearance per min, Inulin concentrations were measured with enthrone method and inulin clearance was used for GFR quantification. Urinary cGMP and ANP excretion rate was calculated based on raw values obtained in the urine and UV.
# [3] = 600 pmol/kg/min i.v., 60 minutes infusion
smiles,measurement,setting,value
"CC[C@H](C)[C@@H]1NC(=O)[C@H](CCCNC(=N)N)NC(=O)[C@H](CC(=O)O)NC(=O)[C@H](CCSC)NC(=O)[C@H](CCCNC(=N)N)NC(=O)CNC(=O)CNC(=O)[C@H](Cc2ccccc2)NC(=O)[C@@H](NC(=O)[C@H](CO)NC(=O)[C@H](CO)NC(=O)[C@H](CCCNC(=N)N)NC(=O)[C@H](CCCNC(=N)N)NC(=O)[C@H](CC(C)C)NC(=O)[C@@H](N)CO)CSSC[C@@H](C(=O)N[C@@H](CC(N)=O)C(=O)N[C@@H](CO)C(=O)N[C@@H](Cc2ccccc2)C(=O)N[C@@H](CCCNC(=N)N)C(=O)N[C@@H](Cc2ccc(O)cc2)C(=O)O)NC(=O)CNC(=O)[C@H](CC(C)C)NC(=O)CNC(=O)[C@H](CO)NC(=O)[C@H](CCC(N)=O)NC(=O)[C@H](C)NC(=O)CNC1=O [ANP, Atrial natriuretic factor, reference compound]",time to complete degradation by insulin-degrading enzyme,[1],≤ 15 min
same,UV after a clearance period of 30 minutes,[2],normalized
same,change in mean arterial pressure (MAP) over the infusion period,[2]; [3],decrease
same,change in plasma cGMP over the infusion period,[2]; [3],increase
same,MAP in the 30 minutes clearance period,[2]; after 60 min infusion,rebounded
